The record followed here is ChEMBL document CHEMBL5338751, “Discovery of the First-in-Class Intestinal Restricted FXR and FABP1 Dual Modulator ZLY28 for the Treatment of Nonalcoholic Fatty Liver Disease” (J Med Chem, 2023).

The source made the active and inactive calls. The calls are words filed in the database; no cut-off is given here.

The nature of data set [1]: Subacute toxicity in ICR mouse assessed as changes in serum TBA level at 500 mg/kg/day, po administered for 14 days. It counts as organism-based. The following applies: in vivo, 336 h, time 14 day.
Data set [2] deals with G-protein coupled bile acid receptor 1 (Homo sapiens, UniProt Q8TDU6). Nature of the data set: Activation of TGR5 (unknown origin) transfected in human NCI-H716 cells assessed as increase in cAMP production incubated for 24 hrs by HTR-FRET assay. The data set is classed as functional, cell-based.
Sequence of G-protein coupled bile acid receptor 1 (Q8TDU6 whole entry): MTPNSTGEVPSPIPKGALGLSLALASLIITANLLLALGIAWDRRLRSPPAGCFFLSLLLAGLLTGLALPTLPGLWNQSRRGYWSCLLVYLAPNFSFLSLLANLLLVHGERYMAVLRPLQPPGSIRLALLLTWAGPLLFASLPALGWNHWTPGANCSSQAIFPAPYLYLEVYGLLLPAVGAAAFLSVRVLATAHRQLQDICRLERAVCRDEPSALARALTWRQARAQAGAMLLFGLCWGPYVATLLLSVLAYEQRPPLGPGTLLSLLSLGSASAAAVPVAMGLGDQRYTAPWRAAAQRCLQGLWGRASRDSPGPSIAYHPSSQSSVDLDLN
The nature of data set [3]: Metabolic stability in Sprague-Dawley rat liver microsomes assessed as parent compound remaining incubated for 1 hr by LC-MS analysis. The following applies: read-out: Stability. It counts as ADME, Microsome. On the technique in general: Microsomes from liver hold many membrane-bound enzymes, among them those of drug oxidation.
The target in data set [4] is T1, Fatty acid-binding protein, liver (Homo sapiens, UniProt P07148).
T1 sequence (P07148 whole entry): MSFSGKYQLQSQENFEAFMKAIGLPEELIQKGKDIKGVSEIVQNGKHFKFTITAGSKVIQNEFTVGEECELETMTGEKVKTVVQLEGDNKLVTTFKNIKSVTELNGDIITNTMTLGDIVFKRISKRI
Nature of the data set: Displacement of 8-anilino-1-naphthalene-sulfonic acid from FABP1 (unknown origin) incubated for 3 mins by fluorescence based assay.

The target of data set [5] is Fatty acid-binding protein, adipocyte (Homo sapiens, UniProt P15090). As to the kind of experiment: Displacement of 8-anilino-1-naphthalene-sulfonic acid from FABP4 (unknown origin) incubated for 3 mins by fluorescence based assay.
Sequence of Fatty acid-binding protein, adipocyte (P15090 whole entry): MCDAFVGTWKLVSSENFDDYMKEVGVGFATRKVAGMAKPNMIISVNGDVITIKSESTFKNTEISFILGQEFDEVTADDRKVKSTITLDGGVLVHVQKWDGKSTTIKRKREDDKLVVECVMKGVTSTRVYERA
Data set [6] is described as follows: Ratio of drug level in liver to plasma in C57BL/6 mouse at 20 mg/kg, po administered for 5 days and measured after 1 hr post final dose by LC-MS analysis.
The test system of data set [7] is Mus musculus. As to the kind of experiment: Anti-NASH activity in western diet and CCl4-induced nonalcoholic steatohepatitis C57BL/6 mouse assessed as downregulation of F4/80 expression level at 20 mg/kg, po administered for 12 weeks starting from week 8 and change in dose for every 5 days. The following applies: time 4.0 weeks. It counts as functional, organism-based.

In data set [8] the target is T2, Peroxisome proliferator-activated receptor alpha (Homo sapiens, UniProt Q07869).
T2 sequence (Q07869 whole entry): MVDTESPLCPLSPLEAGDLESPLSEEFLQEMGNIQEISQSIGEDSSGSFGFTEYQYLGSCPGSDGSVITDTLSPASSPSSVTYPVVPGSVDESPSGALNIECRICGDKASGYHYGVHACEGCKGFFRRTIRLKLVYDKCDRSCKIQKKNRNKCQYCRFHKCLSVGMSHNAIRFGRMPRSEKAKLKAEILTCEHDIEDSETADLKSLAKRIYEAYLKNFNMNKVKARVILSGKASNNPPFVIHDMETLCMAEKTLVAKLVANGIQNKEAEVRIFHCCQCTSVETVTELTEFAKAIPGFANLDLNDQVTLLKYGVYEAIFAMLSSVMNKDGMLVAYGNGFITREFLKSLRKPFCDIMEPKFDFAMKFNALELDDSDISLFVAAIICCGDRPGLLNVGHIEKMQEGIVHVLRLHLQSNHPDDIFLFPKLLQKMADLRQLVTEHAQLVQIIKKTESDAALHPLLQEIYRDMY
As to the kind of experiment: Agonist activity at pBIND-PPARalpha (unknown origin) transfected in HepG2 cells incubated for 18 hrs by renilla/firefly based dual-glo luciferase assay. The data set is classed as cell-based.

Data set [9] relates to Mus musculus. As to the kind of experiment: Anti-NASH activity in western diet and CCl4-induced nonalcoholic steatohepatitis C57BL/6 mouse assessed as alleviation of lobular inflammation at 20 mg/kg, po administered for 12 weeks starting from week 8 and change in dose for every 5 days. As to conditions: time 4.0 weeks. It counts as functional, organism-based.
For data set [10], the target named is T3, Bile acid receptor (Mus musculus) (UniProt Q60641).
T3 sequence (whole entry): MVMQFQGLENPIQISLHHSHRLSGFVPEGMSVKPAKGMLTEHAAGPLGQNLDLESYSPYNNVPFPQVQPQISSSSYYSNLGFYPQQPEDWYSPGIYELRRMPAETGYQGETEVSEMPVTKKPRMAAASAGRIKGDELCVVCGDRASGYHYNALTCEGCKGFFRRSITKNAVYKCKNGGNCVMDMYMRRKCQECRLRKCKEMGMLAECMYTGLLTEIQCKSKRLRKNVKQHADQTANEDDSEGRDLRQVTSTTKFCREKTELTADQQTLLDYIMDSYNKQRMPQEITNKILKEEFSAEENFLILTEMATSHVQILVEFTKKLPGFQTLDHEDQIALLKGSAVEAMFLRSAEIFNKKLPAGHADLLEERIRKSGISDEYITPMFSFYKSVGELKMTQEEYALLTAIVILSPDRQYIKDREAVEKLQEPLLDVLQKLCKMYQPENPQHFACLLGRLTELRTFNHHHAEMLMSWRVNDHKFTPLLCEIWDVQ
As to the kind of experiment: In vivo activation of FXR pathway in western diet and CCl4-induced nonalcoholic steatohepatitis C57BL/6 mouse model assessed as upregulation of SHP gene expression in ileum at 20 mg/kg, po administered for 12 weeks starting from week 8 and change in dose for every 5 days by RT-PCR analysis. The data set is classed as functional, organism-based. As to conditions: time 4.0 weeks.

Data set [11] can be described thus: Drug concentration in C57BL/6 mouse liver at 20 mg/kg, po administered for 5 days and measured after 1 hr post final dose by LC-MS analysis. The data set is classed as ADME, organism-based. The following applies: time 5 day, read-out: Ct.
Data set [12] in a line: Activation of Gal-DBD and NHRLBD fused RXRalpha (unknown origin) transfected in African green monkey CV-1 cells by luciferase reporter assay. It counts as cell-based. The following applies: Homo sapiens. (In general: A reporter such as luciferase makes a cellular process visible.)

By EC50 is commonly meant the concentration that produces a half-maximal response. By IC50 is commonly meant the point on the concentration scale where inhibition reaches its midpoint. Usually Kp stands for tissue or fluid exposure divided by exposure in the circulation. For `O=C(O)C1(c2cccc(-c3ccc(OCc4c(-c5c(Cl)cccc5Cl)noc4C4CC4)cc3)c2)CC1`, the Activity entry in [1] is recorded as “Non-Toxic”. For the same molecule, the EC50 in [2], in data set [8] and in [12] was more than 10 µM each time. In addition, in [3], the remaining at 1 h is 68.6%. The IC50 was found to be 2.7 µM in data set [4] and 6.3 µM in data set [5]. Further, in data set [6], the Kp at 120 h was determined as 5.1. Moreover, the result (in the data set on Mus musculus [7]; in the data set with Mus musculus [9]; in data set [10]) was Active. The concentration at 120 h in data set [11] amounted to 37.2 ng/g.
